Source: patent US7067666B2, “7-substituted camptothecin and camptothecin analogs and methods for producing the same” (priority 2003, dated 2006)
In brackets after ≈: the same amount, converted by molar mass. Read-outs that look alike come from different tables or passages of the source.

Assay: Solubility in methylene chloride (standard method for ascertaining lipophilicity)
Type: physicochemical
From the text: Throughout the present application many CPT compounds have been defined with a substituent X as shown in structure I or II where X is defined and many substituents are shown. With the exception of the simple substituents where R is C1-5 alkyl (which can be prepared by the method of Sawada et al. (Chem. Pharm. Bull. 39, 2574-2580 ([…]))), the other compounds recited herein can not be made by conventional methods, but require, to the best of the inventors' knowledge, the use of the method of the present invention. Using the method of Sawada et al, the yield of alkyl became progressively lower essentially terminating where R is C5 alkyl. All other R substituents shown herein can be made only by the present method involving Grignard reactions, especially analogs like 7-t-butyl-10,11-methylenedioxy-CPT, 7-trimethylsilylmethyl-10,11-methylenedioxy-CPT, 7-naphthylmethyl-10,11-methylenedioxy-CPT, 7-p-fluorophenyl-10,11-methylenedioxy-CPT, 7-p-trifluoromethyl-10,11-methylenedioxy-CPT, and 7-p-tolyl-10,11-methylenedioxy-CPT. A number of compounds made by this method have shown unusual properties. For example, Table 1 gives the methylene chloride solubility of a number of compounds which are made by the methods described by this patent. For example, 7-butyl-10-aminocamptothecin made by this procedure is remarkably lipophilic. 10-Aminocamptothecin has a solubility of —0.2 mg/ml. […] It has been found by several groups that lipophilic substituents at the 7 position have excellent activity in the inhibition of topoisomerase I and in in vitro and in vivo cancer therapy.
We have utilized a standard method for ascertaining the lipophilicity of a number of camptothecin analogs. This involves the solubility in methylene chloride. This solvent is an excellent solvent for fat-soluble compounds. As can be noted with only one exception, compounds with the 7-butyl substituent are considerably more soluble than those without this constituent. Thus camptothecin is soluble only to the extent of 0.6 mg/ml whereas 7-butyl-camptothecin has a solubility of 20 mg/ml. 10-Amino-camptothecin is soluble only to the extent of 0.2 mg/ml. Very unexpectedly, 7-butyl-10-amino-camptothecin is very soluble at 145 mg/ml. It is also conceivable that camptothecin analogs with 7-pentyl or 7-hexyl substituents or 7-cyclopentyl or 7-cyclohexyl substituents will have increased solubility.

Compound	Solubility [µg/mL]	further results
CCC1(O)C(=O)OCc2c1cc1n(c2=O)Cc2cc3cc4c(cc3nc2-1)OCCO4 (centres unmarked) [10,11-ED-CPT, reference compound]	200 (≈ 492 µM)	
CC[C@@]1(O)C(=O)OCc2c1cc1n(c2=O)Cc2c-1nc1cc3c(cc1c2-c1ccc(Cl)cc1)OCO3 [7-p-Chlorophenyl-10,11-MD-CPT, 7-p-Chlorophenyl-10,11-MD-20(S)-Camptothecin]	6300 (≈ 12500 µM)	
CC[C@@]1(O)C(=O)OCc2c1cc1n(c2=O)Cc2c-1nc1cc3c(cc1c2-c1ccc(F)cc1)OCO3 [7-p-Fluorophenyl-10,11-MD-CPT, 7-p-Fluorophenyl-10,11-MD-20(S)-Camptothecin]	2550 (≈ 5240 µM)	
CCCCc1c2c(nc3ccccc13)-c1cc3c(c(=O)n1C2)COC(=O)C3(O)CC (centres unmarked) [Example 7-Butyl-CPT, 7-butyl-camptothecin]	20000 (≈ 49400 µM)	solubility in methylene chloride: 20000 µg/mL (≈ 49400 µM)
CCCCc1c2c(nc3ccc(N)cc13)-c1cc3c(c(=O)n1C2)COC(=O)[C@]3(O)CC [7-Butyl-10-Amino-CPT, 7-n-Butyl-10-Amino-20(S)-Camptothecin]	145000 (≈ 346000 µM)	
CC[C@@]1(O)C(=O)OCc2c1cc1n(c2=O)Cc2cc3cc4c(cc3nc2-1)OCO4 [10,11-MD-CPT, 10,11-methylenedioxy-CPT, reference compound]		Solubility (Solubility in CH2Cl2): <8 µg/mL
CCCCc1c2c(nc3cc4c(cc13)OCCO4)-c1cc3c(c(=O)n1C2)COC(=O)C3(O)CC (centres unmarked) [7-Butyl-10,11-ED-CPT]	7000 (≈ 15100 µM)	
CCC1(O)C(=O)OCc2c1cc1n(c2=O)Cc2cc3c([N+](=O)[O-])c4c(cc3nc2-1)OCO4 (centres unmarked) [9-Nitro-10,11-MD-CPT, reference compound]	250 (≈ 572 µM)	
7-Butyl-9-methyl-CPT	180	
CC[C@@]1(O)C(=O)OCc2c1cc1n(c2=O)Cc2c-1nc1cc3c(cc1c2-c1ccc(C)cc1)OCO3 [7-p-Tolyl-10,11-MD-CPT, 7-p-Tolyl-10,11-MD-20(S)-Camptothecin]	4600 (≈ 9530 µM)	
7-Benzyl-10,11-CPT	1800	
CCC1(O)C(=O)OCc2c1cc1n(c2=O)Cc2cc3c(C)cccc3nc2-1 (centres unmarked) [Example 9-Methyl-CPT, 9-Methyl-CPT, reference compound]	100 (≈ 276 µM)	
CCC1(O)C(=O)OCc2c1cc1n(c2=O)Cc2cc3c(N)c4c(cc3nc2-1)OCO4 (centres unmarked) [9-Amino-10,11-MD-CPT, reference compound]	<20	
CC[C@@]1(O)C(=O)OCc2c1cc1n(c2=O)Cc2cc3c(N)cccc3nc2-1 [Example 9-Amino-CPT, 9-Amino-CPT, reference compound]	<30	
CCCCc1c2c(nc3ccc(OC)cc13)-c1cc3c(c(=O)n1C2)COC(=O)C3(O)CC (centres unmarked) [7-Butyl-10-methoxy-CPT]	2000 (≈ 4600 µM)	
CCCCc1c2c(nc3cc4c(cc13)OCO4)-c1cc3c(c(=O)n1C2)COC(=O)[C@]3(O)CC [7-Butyl-10,11-MD-CPT]	8500 (≈ 19000 µM)	
CC[C@@]1(O)C(=O)OCc2c1cc1n(c2=O)Cc2cc3cc(OC)ccc3nc2-1 [10-Methoxy-CPT, reference compound]	3000 (≈ 7930 µM)	
CC[C@@]1(O)C(=O)OCc2c1cc1n(c2=O)Cc2cc3cc(N)ccc3nc2-1 [Example 10-Amino-CPT, 10-Aminocamptothecin, reference compound]	200 (≈ 550 µM)	solubility in methylene chloride: 200 µg/mL (≈ 550 µM)
CCCCc1c2c(nc3ccc(O)cc13)-c1cc3c(c(=O)n1C2)COC(=O)[C@]3(O)CC [7-Butyl-10-OH-CPT]	<50	
CCC(C)c1c2c(nc3ccccc13)-c1cc3c(c(=O)n1C2)COC(=O)C3(O)CC (centres unmarked) [7-(sec)Butyl-CPT]	33000 (≈ 81600 µM)	
CC[C@@]1(O)C(=O)OCc2c1cc1n(c2=O)Cc2c-1nc1cc3c(cc1c2Cc1ccccc1)OCO3 [7-Benzyl-10,11-MD-CPT, 7-Benzyl-10,11-MD-20(S)-Camptothecin]	1800 (≈ 3730 µM)	
CC[C@@]1(O)C(=O)OCc2c1cc1n(c2=O)Cc2cc3ccccc3nc2-1 [Camptothecin]		Solubility (Solubility in CH2Cl2): 600 µg/mL (≈ 1720 µM); Solubility (organic solvent or mixture, methylene chloride, read-out: solubility in methylene chloride): 600 µg/mL (≈ 1720 µM)
CC[C@@]1(O)C(=O)OCc2c1cc1n(c2=O)Cc2cc3cc(O)ccc3nc2-1 [Example 10-OH-CPT, 10-OH-CPT, reference compound]		Solubility (Solubility in CH2Cl2): <40 µg/mL
